Laboratory results: ChEMBL document CHEMBL4011620, “Design and Discovery of N-(2-Methyl-5'-morpholino-6'-((tetrahydro-2H-pyran-4-yl)oxy)-[3,3'-bipyridin]-5-yl)-3-(trifluoromethyl)benzamide (RAF709): A Potent, Selective, and Efficacious RAF Inhibitor Targeting RAS Mutant Cancers” (J Med Chem, 2017)

Tests used:
[1] = Apparent permeability across apical to basolateral side in human Caco2 cells at pH 7.4 by LC/MS/MS analysis; settings: Caco-2, pH 7.4
[2] = Apparent permeability across basolateral to apical side in human Caco2 cells at pH 7.4 by LC/MS/MS analysis; settings: Caco-2, pH 7.4
[3] = biological target: Tyrosine-protein kinase FRK (Homo sapiens) (UniProt P42685); assay: Binding affinity to human FRK (215 to 503 residues) expressed in mammalian expression system at 1 uM by kinome scan assay relative to control
[4] = Cmax in rat at 10 mg/kg, po; type: ADME, organism-based; set-up: dose 10 mg/kg, route oral; settings: in vivo
[5] = Cmax in dog at 1 mg/kg, po; type: ADME, organism-based, Canis lupus familiaris; set-up: dose 1 mg/kg, route oral; settings: in vivo
[6] = AUC (infinity) in dog at 1 mg/kg, po; type: ADME, organism-based, Canis lupus familiaris; set-up: dose 1 mg/kg, time infinity, route oral; settings: in vivo
[7] = Clearance in mouse at 1 mg/kg, iv or 3 mg/kg, po; type: ADME, organism-based; settings: in vivo
[8] = Clearance in rat at 3 mg/kg, iv or 10 mg/kg, po; type: ADME, organism-based; settings: in vivo
[9] = Volume of distribution at steady state in mouse at 1 mg/kg, iv or 3 mg/kg, po; type: ADME, organism-based; settings: in vivo, read-out: Vdss
[10] = Volume of distribution at steady state in dog at 0.3 mg/kg, iv or 1 mg/kg, po; type: ADME, organism-based, Canis lupus familiaris; settings: in vivo, read-out: Vdss
[11] = Oral bioavailability in mouse at 3 mg/kg; type: ADME, organism-based; settings: in vivo
[12] = Oral bioavailability in rat at 10 mg/kg; type: ADME, organism-based; settings: in vivo
[13] = Metabolic stability in mouse plasma after 3 hrs; type: ADME, cell-free; settings: read-out: Stability
[14] = Metabolic stability in human plasma after 3 hrs; type: ADME, cell-free; settings: read-out: Stability
[15] = Protein binding in mouse plasma; type: ADME, cell-free; settings: read-out: PPB (converted)
[16] = Protein binding in dog plasma; type: ADME, cell-free, Canis lupus familiaris; settings: read-out: PPB (converted)
[17] = system: Calu-6; assay: Antitumor activity against human Calu6 cells xenografted in nude mouse assessed as effect on tumor volume at 10 mg/kg/day, po administered for 15 days starting on day 12 post tumor implantation measured on day 27 relative to control; type: functional
[18] = system: Mus musculus; assay: Toxicity in nude mouse xenografted with human Calu6 cells assessed as body weight loss at 10 to 200 mg/kg/day, po administered for 15 days starting on day 12 post tumor implantation measured twice per week of compound dosing; type: organism-based; settings: in vivo, 360 h
[19] = biological target: Serine/threonine-protein kinase B-raf (Homo sapiens, UniProt P15056); assay: Inhibition of full-length BRAF (unknown origin)
[20] = system: RAF proto-oncogene serine/threonine-protein kinase (Homo sapiens), P04049 [Y340E,Y341E]

Chain of Tyrosine-protein kinase FRK (Homo sapiens) (P42685 whole entry, the tested form may be a part): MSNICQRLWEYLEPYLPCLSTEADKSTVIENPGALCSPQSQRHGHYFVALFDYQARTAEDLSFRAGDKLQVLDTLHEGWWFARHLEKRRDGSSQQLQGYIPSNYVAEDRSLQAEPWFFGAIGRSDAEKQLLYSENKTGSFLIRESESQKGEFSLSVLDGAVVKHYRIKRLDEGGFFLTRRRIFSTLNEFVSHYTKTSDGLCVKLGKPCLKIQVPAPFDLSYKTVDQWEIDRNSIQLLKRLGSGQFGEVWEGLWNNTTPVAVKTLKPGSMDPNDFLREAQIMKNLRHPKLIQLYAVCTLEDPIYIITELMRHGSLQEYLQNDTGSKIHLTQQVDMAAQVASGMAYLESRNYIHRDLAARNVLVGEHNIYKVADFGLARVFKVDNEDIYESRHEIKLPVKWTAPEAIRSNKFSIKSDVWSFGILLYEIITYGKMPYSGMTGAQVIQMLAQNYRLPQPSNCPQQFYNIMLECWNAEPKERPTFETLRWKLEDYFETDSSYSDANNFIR
Chain of Serine/threonine-protein kinase B-raf (P15056 whole entry): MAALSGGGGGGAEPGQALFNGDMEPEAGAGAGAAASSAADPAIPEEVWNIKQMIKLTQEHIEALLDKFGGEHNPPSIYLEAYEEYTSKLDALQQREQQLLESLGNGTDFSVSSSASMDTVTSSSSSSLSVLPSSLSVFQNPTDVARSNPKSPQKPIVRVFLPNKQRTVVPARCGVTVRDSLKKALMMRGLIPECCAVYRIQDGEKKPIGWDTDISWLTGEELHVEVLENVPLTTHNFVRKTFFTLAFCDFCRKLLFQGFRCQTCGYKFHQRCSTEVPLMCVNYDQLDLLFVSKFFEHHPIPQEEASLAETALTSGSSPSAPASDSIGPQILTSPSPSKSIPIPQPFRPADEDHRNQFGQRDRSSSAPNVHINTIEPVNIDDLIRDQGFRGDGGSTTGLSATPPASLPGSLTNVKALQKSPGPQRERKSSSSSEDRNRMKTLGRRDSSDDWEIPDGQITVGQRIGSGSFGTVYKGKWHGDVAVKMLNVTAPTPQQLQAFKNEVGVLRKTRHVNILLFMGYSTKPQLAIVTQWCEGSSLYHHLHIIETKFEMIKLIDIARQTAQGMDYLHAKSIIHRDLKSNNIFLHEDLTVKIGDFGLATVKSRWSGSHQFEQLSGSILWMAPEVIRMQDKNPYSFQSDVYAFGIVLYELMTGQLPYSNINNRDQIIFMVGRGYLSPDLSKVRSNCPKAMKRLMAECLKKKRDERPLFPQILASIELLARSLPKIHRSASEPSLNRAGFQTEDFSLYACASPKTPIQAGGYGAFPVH

Compound Cc1ncc(NC(=O)c2cccc(C(F)(F)F)c2)cc1-c1cnc(OC2CCOCC2)c(N2CCOCC2)c1 has a Papp A→B [1] of 15 ×10⁻⁶ cm/s, a Papp B→A [2] of 13 ×10⁻⁶ cm/s and an Activity [3] of 92%. It also gave a Cmax [4] of 800 nM, a Cmax [5] of 500 nM and an AUC(0-inf) [6] of 1 µM·h. The clearance [7] was 35 mL/min/kg, the clearance [8] was 50 mL/min/kg and the Vd [9] was 1.2 L/kg. The Vd [10] was 3.1 L/kg, the bioavailability [11] was 68% and the bioavailability [12] was 24%. For the same compound, the remaining at 3 h [13] was 82%, the remaining at 3 h [14] was 101% and the fraction unbound [15] was 0.02. For the same compound, the fraction unbound [16] was 0.02, the T/C [17] was 92% and the Activity [18] was “Non-Toxic”. For the same compound, the IC50 [19] was 0.4 nM and the T1/2 [20] was over 6.5 h.
